Assay results: US9458414B2, “Cleaning, surfactant, and personal care compositions” (SEGETIS, INC., priority 2012, dated 2016)
One block for each molecule: values may come before it.

What was measured:
[1] = Coupling of water and octanoic acid by hydrotropes (amount producing a single phase); format: physicochemical
Experimental: Hydrotropes were added to a two-component mixture of octanoic acid and deionized (DI) water to find the amount that produced a single phase from the two separate phases of water and octanoic acid.
The percent hydrotrope required to compatibilize phases (and the resulting percent octanoic acid) were calculated and the results are shown in Table 4 as well as FIG. 1.

[2] = Hard surface cleaning formulation freeze-thaw testing; format: physicochemical; settings: for Freeze-thaw visual observation: Example 5 formulation containing the solvent, 0° C. freezer >12 hours, thaw to room temperature
Experimental: Formulations as in Example 5 were prepared by combining ingredients and mixing until homogeneous. Freeze-thaw testing was performed over 3 cycles. Each cycle was putting the formulations into a 0° C. freezer for greater than 12 hours, then taking them out and allowing the samples to thaw to room temperature and then making the visual observation.

[3] = Hard surface cleaning formulation heat cloud point testing; format: physicochemical; settings: Example 5 formulation containing the solvent; for Cloud point: heated while mixing
Experimental: Formulations as in Example 5 were prepared by combining ingredients and mixing until homogeneous.

[4] = Coupling of water and soy methyl ester by hydrotropes; format: physicochemical
Experimental: Hydrotropes were added to a two-component mixture of soy methyl ester and DI water to find the amount that produced a single phase from the two separate phases of water and soy methyl ester. The percent hydrotrope required to compatibilize the phases was calculated.

[5] = Coupling of water and castor oil by hydrotropes; format: physicochemical
[6] = Hard surface cleaning formulation pH testing over 7 days; format: physicochemical; settings: 5 g solvent per 100 g
Experimental: Formulations were prepared by combining ingredients and mixing until homogeneous. Next, pH measurements were taken over 7 days.

[7] = Vanillin composition in ketal alcohol (1a); format: physicochemical; settings: 75% ketal alcohol (1a) to 25% vanillin by weight, room temperature
Experimental: Vanillin was dissolved into the ketal alcohol (1a) at room temperature using 75% ketal alcohol (1a) to 25% vanillin by weight.

[8] = Hair dye active solubility testing
Experimental: Two component mixtures using ketal alcohol (1a) and the actives shown in Table 13 were prepared by mixing the components at various proportions in a vial at room temperature and then heating in a lab oven at 80° C. for 10 minutes and then shaking.
Comparative formulations using EtLGK and ketal alcohol (1a) are shown below in Tables 14 and 15.

[9] = ratio of water:octanoic acid 10:90
[10] = ratio of water:octanoic acid 30:70
[11] = ratio of water:octanoic acid 50:50
[12] = ratio of water:octanoic acid 70:30
[13] = ratio of water:octanoic acid 90:10
[14] = water:octanoic acid 10:90 (DI water 0.5 g, octanoic acid 4.5 g)
[15] = water:octanoic acid 30:70 (DI water 1.5 g, octanoic acid 3.5 g)
[16] = water:octanoic acid 50:50 (DI water 5.0 g, octanoic acid 5.0 g)
[17] = water:octanoic acid 70:30 (DI water 3.5 g, octanoic acid 1.5 g)
[18] = water:octanoic acid 90:10 (DI water 4.5 g, octanoic acid 0.5 g)
[19] = ratio of water:soy methyl esters 10:90
[20] = ratio of water:soy methyl esters 30:70
[21] = ratio of water:soy methyl esters 50:50
[22] = ratio of water:soy methyl esters 70:30
[23] = ratio of water:soy methyl esters 90:10
[24] = ratio of water to castor oil 10:90
[25] = ratio of water to castor oil 30:70
[26] = ratio of water to castor oil 50:50
[27] = ratio of water to castor oil 70:30
[28] = ratio of water to castor oil 90:10

Compound: CCCCOCCO [2-butoxyethanol]
- Wt % Hydrotrope required to compatibilize phases [1, 9]: 33%
- Wt % Octanoic Acid (resulting, at compatibilization) [1, 9]: 60%
- Wt % Hydrotrope required to compatibilize phases [1, 10]: 52%
- Wt % Octanoic Acid (resulting, at compatibilization) [1, 10]: 34%
- Wt % Hydrotrope required to compatibilize phases [1, 11]: 57%
- Wt % Octanoic Acid (resulting, at compatibilization) [1, 11]: 21%
- Wt % Hydrotrope required to compatibilize phases [1, 12]: 61%
- Wt % Octanoic Acid (resulting, at compatibilization) [1, 12]: 12%
- Wt % Hydrotrope required to compatibilize phases [1, 13]: 52%
- Wt % Octanoic Acid (resulting, at compatibilization) [1, 13]: 5%
- Amount of hydrotrope that produced a single phase [1, 14]: 2.47 grams
- Amount of hydrotrope that produced a single phase [1, 15]: 5.39 grams
- Amount of hydrotrope that produced a single phase [1, 16]: 6.74 grams
- Amount of hydrotrope that produced a single phase [1, 17]: 7.9 grams
- Amount of hydrotrope that produced a single phase [1, 18]: 5.43 grams
- Freeze-thaw visual observation ([2]; Cycle 1): separation;
- Freeze-thaw visual observation ([2]; Cycle 2): separation;
- Freeze-thaw visual observation ([2]; Cycle 3): two phases;
- Cloud point [3]: 44 °C
- Cloud point ([3]; listed as Butyl Cellosolve): 44 °C

- Wt % Hydrotrope required to compatibilize phases [1, 9]: 38%
- Wt % Octanoic Acid (resulting, at compatibilization) [1, 9]: 55%
- Wt % Hydrotrope required to compatibilize phases [1, 10]: 59%
- Wt % Octanoic Acid (resulting, at compatibilization) [1, 10]: 29%
- Wt % Hydrotrope required to compatibilize phases [1, 11]: 69%
- Wt % Octanoic Acid (resulting, at compatibilization) [1, 11]: 15%
- Wt % Hydrotrope required to compatibilize phases [1, 12]: 66%
- Wt % Octanoic Acid (resulting, at compatibilization) [1, 12]: 10%
- Wt % Hydrotrope required to compatibilize phases [1, 13]: 58%
- Wt % Octanoic Acid (resulting, at compatibilization) [1, 13]: 4%
- Amount of hydrotrope that produced a single phase [1, 14]: 3.11 grams
- Amount of hydrotrope that produced a single phase [1, 15]: 7.2 grams
- Amount of hydrotrope that produced a single phase [1, 16]: 22.68 grams
- Amount of hydrotrope that produced a single phase [1, 17]: 9.79 grams
- Amount of hydrotrope that produced a single phase [1, 18]: 6.84 grams
- Wt % Hydrotrope required to compatibilize the phases [4, 19]: 78%
- Wt % Soy Methyl Esters (at compatibilization) [4, 19]: 20%
- Wt % Hydrotrope required to compatibilize the phases [4, 20]: 83%
- Wt % Soy Methyl Esters (at compatibilization) [4, 20]: 12%
- Wt % Hydrotrope required to compatibilize the phases [4, 21]: 86%
- Wt % Soy Methyl Esters (at compatibilization) [4, 21]: 7%
- Wt % Hydrotrope required to compatibilize the phases [4, 22]: 86%
- Wt % Soy Methyl Esters (at compatibilization) [4, 22]: 4%
- Wt % Hydrotrope required to compatibilize the phases [4, 23]: 84%
- Wt % Soy Methyl Esters (at compatibilization) [4, 23]: 2%
- Wt % Castor oil (at compatibilization) [5, 24]: 35%
- Wt % Hydrotrope required to compatibilize phases [5, 24]: 61%
- Wt % Castor oil (at compatibilization) [5, 25]: 17%
- Wt % Hydrotrope required to compatibilize phases [5, 25]: 76%
- Wt % Castor oil (at compatibilization) [5, 26]: 9%
- Wt % Hydrotrope required to compatibilize phases [5, 26]: 82%
- Wt % Castor oil (at compatibilization) [5, 27]: 4%
- Wt % Hydrotrope required to compatibilize phases [5, 27]: 86%
- Wt % Castor oil (at compatibilization) [5, 28]: 1%
- Wt % Hydrotrope required to compatibilize phases [5, 28]: 85%
- pH stability of the formulation containing the solvent [6]: underwent significant pH drift downward
- Freeze-thaw visual observation ([2]; Cycle 1): stable;
- Freeze-thaw visual observation ([2]; Cycle 2): gradient;
- Freeze-thaw visual observation ([2]; Cycle 3): gradient;
- Cloudiness on heating [3]: showed no signs of cloudiness
- Cloud point [3]: >100 °C
Compound: CCOC(=O)CCC1(C)OCC(CO)O1 (stereo not shown) [EtLGK, glycerol ketal of ethyl levulinic acid]

- Wt % Hydrotrope required to compatibilize phases [1, 9]: 31%
- Wt % Octanoic Acid (resulting, at compatibilization) [1, 9]: 62%
- Wt % Hydrotrope required to compatibilize phases [1, 10]: 53%
- Wt % Octanoic Acid (resulting, at compatibilization) [1, 10]: 33%
- Wt % Hydrotrope required to compatibilize phases [1, 11]: 54%
- Wt % Octanoic Acid (resulting, at compatibilization) [1, 11]: 23%
- Wt % Hydrotrope required to compatibilize phases [1, 12]: 55%
- Wt % Octanoic Acid (resulting, at compatibilization) [1, 12]: 14%
- Wt % Hydrotrope required to compatibilize phases [1, 13]: 46%
- Wt % Octanoic Acid (resulting, at compatibilization) [1, 13]: 5%
- Amount of hydrotrope that produced a single phase [1, 14]: 2.27 grams
- Amount of hydrotrope that produced a single phase [1, 15]: 5.63 grams
- Amount of hydrotrope that produced a single phase [1, 16]: 11.81 grams
- Amount of hydrotrope that produced a single phase [1, 17]: 6.07 grams
- Amount of hydrotrope that produced a single phase [1, 18]: 4.33 grams
- Wt % Hydrotrope required to compatibilize the phases [4, 19]: 58%
- Wt % Soy Methyl Esters (at compatibilization) [4, 19]: 38%
- Wt % Hydrotrope required to compatibilize the phases [4, 20]: 73%
- Wt % Soy Methyl Esters (at compatibilization) [4, 20]: 19%
- Wt % Hydrotrope required to compatibilize the phases [4, 21]: 81%
- Wt % Soy Methyl Esters (at compatibilization) [4, 21]: 10%
- Wt % Hydrotrope required to compatibilize the phases [4, 22]: 83%
- Wt % Soy Methyl Esters (at compatibilization) [4, 22]: 5%
- Wt % Hydrotrope required to compatibilize the phases [4, 23]: 81%
- Wt % Soy Methyl Esters (at compatibilization) [4, 23]: 2%
- Wt % Castor oil (at compatibilization) [5, 24]: 32%
- Wt % Hydrotrope required to compatibilize phases [5, 24]: 64%
- Wt % Castor oil (at compatibilization) [5, 25]: 21%
- Wt % Hydrotrope required to compatibilize phases [5, 25]: 71%
- Wt % Castor oil (at compatibilization) [5, 26]: 11%
- Wt % Hydrotrope required to compatibilize phases [5, 26]: 79%
- Wt % Castor oil (at compatibilization) [5, 27]: 5%
- Wt % Hydrotrope required to compatibilize phases [5, 27]: 82%
- Wt % Castor oil (at compatibilization) [5, 28]: 2%
- Wt % Hydrotrope required to compatibilize phases [5, 28]: 84%
- Freeze-thaw visual observation ([2]; Cycle 1): stable;
- Freeze-thaw visual observation ([2]; Cycle 2): gradient;
- Freeze-thaw visual observation ([2]; Cycle 3): gradient;
- Cloudiness on heating [3]: showed no signs of cloudiness
- Cloud point [3]: >100 °C
Compound: CC1COC(C)(CCCO)O1 (stereo not shown) [Ketal alcohol (1a)]
- Freeze-thaw performance overall ([2]; formulation containing the solvent, 3 cycles): performed similarly to or better than the 2-butoxyethanol

Compound: CCOC(=O)CCC1(C)OCC(CO)O1 (stereo not shown) [Ketal alcohol (1a)]
- pH stability of the formulation containing the solvent [6]: maintained the same pH as the formulation containing 2-butoxyethanol and the control formulation

Compound: COc1cc(C=O)ccc1O [Vanillin]
- Appearance of mixture in ketal alcohol (1a) [7]: homogeneous clear liquid with no signs of precipitate

Compound: Nc1ccc(N)cc1 [p-phenylene diamine]
- Ketal Alcohol (1a) Solubility ([8]; Table 15, weight percentage active 1%): insoluble
- Ketal Alcohol (1a) Solubility ([8]; weight percentage active 1%, 80° C. 10 minutes, shaking, room temperature 24 hours): soluble
- EtLGK Solubility ([8]; weight percentage active 5% in EtLGK): soluble
- Ketal Alcohol (1a) Solubility ([8]; weight percentage active 5%, 80° C. 10 minutes, shaking, room temperature 24 hours): soluble
- Ketal Alcohol (1a) Solubility ([8]; weight percentage active 10%, 80° C. 10 minutes, shaking, room temperature 24 hours): insoluble
